Measured values published in the supplement of paper PMC13380429.

Legend:
Conditions in all cases: 72 h
HepG2 [1] = experiment: drug sensitivity score (DSS) for viability; higher = more toxic; extreme values may be limits of the assay
Vero E6 [2] = experiment: as above
U2OS [3] = experiment: as above
Calu-3 [4] = experiment: as above
Caco-2 [5] = experiment: as above
Vero E6 [6] = experiment: relative viability EC50 (midpoint between 100% and the lowest measured viability); higher = less toxic
U2OS [7] = experiment: as above
Calu-3 [8] = experiment: as above
Caco-2 [9] = experiment: as above
HepG2 [10] = experiment: cell viability relative to DMSO; higher = less toxic
Vero E6 [11] = experiment: as above
U2OS [12] = experiment: as above
Calu-3 [13] = experiment: as above
Caco-2 [14] = experiment: as above
HepG2 [15] = experiment: relative viability EC50 (midpoint between 100% and the lowest measured viability); higher = less toxic

| Compound | drug sensitivity score (HepG2 [1]) | drug sensitivity score (Vero E6 [2]) | drug sensitivity score (U2OS [3]) | drug sensitivity score (Calu-3 [4]) | drug sensitivity score (Caco-2 [5]) | relative viability EC50 (Vero E6 [6]) | relative viability EC50 (U2OS [7]) | relative viability EC50 (Calu-3 [8]) | relative viability EC50 (Caco-2 [9]) | cell viability (HepG2 [10]; 1 nM) | cell viability (HepG2 [10]; 10 nM) | cell viability (HepG2 [10]; 100 nM) | cell viability (HepG2 [10]; 1000 nM) | cell viability (HepG2 [10]; 10000 nM) | cell viability (Vero E6 [11]; 1 nM) | cell viability (Vero E6 [11]; 10 nM) | cell viability (Vero E6 [11]; 100 nM) | cell viability (Vero E6 [11]; 1000 nM) | cell viability (Vero E6 [11]; 10000 nM) | cell viability (U2OS [12]; 1 nM) | cell viability (U2OS [12]; 10 nM) | cell viability (U2OS [12]; 100 nM) | cell viability (U2OS [12]; 1000 nM) | cell viability (U2OS [12]; 10000 nM) | cell viability (Calu-3 [13]; 1 nM) | cell viability (Calu-3 [13]; 10 nM) | cell viability (Calu-3 [13]; 100 nM) | cell viability (Calu-3 [13]; 1000 nM) | cell viability (Calu-3 [13]; 10000 nM) | cell viability (Caco-2 [14]; 1 nM) | cell viability (Caco-2 [14]; 10 nM) | cell viability (Caco-2 [14]; 100 nM) | cell viability (Caco-2 [14]; 1000 nM) | cell viability (Caco-2 [14]; 10000 nM) | relative viability EC50 (HepG2 [15]) |
| --- | --- | --- | --- | --- | --- | --- | --- | --- | --- | --- | --- | --- | --- | --- | --- | --- | --- | --- | --- | --- | --- | --- | --- | --- | --- | --- | --- | --- | --- | --- | --- | --- | --- | --- | --- |
| CC(C)Oc1ccc(Cc2ccc(NC3=NCCN3)cc2)cc1 | 1.6 | 0 | 0 | 0 | 0.5 | > 10 µM | > 10 µM | > 10 µM | > 10 µM | 102% | 94.6% | 104% | 97.4% | 71.6% | 96.9% | 97.6% | 101% | 99.5% | 96.7% | 95.3% | 102% | 95.3% | 98.4% | 90.7% | 104% | 99.8% | 95.7% | 96.6% | 88.2% | 102% | 96.1% | 99.3% | 99.4% | 82.3% | – |
| CCN(CC)Cc1ccc(C(=O)N(CCc2ccccc2OC)[C@@H]2CCNC2)cc1 | 1 | 0 | 0 | – | 0 | > 10 µM | > 10 µM | – | > 10 µM | 97.9% | 96.6% | 108% | 104% | 70.5% | 90.3% | 97.9% | 91.5% | 93.1% | 99.9% | 95.5% | 95.7% | 96.9% | 97.2% | 99.3% | – | – | – | – | – | 99.2% | 93% | 91.6% | 101% | 98.2% | – |
| COc1cc2nc(N3CCCN(C)CC3)nc(NC3CCN(Cc4ccccc4)CC3)c2cc1OC | 8.8 | 4.6 | 3.5 | 5.7 | 1.9 | 2.77 µM | 2.69 µM | 2.62 µM | – | 98.8% | 85.4% | 91.4% | 67.5% | 10.3% | 106% | 97.4% | 99.7% | 96.2% | 26.1% | 98% | 100% | 95% | 96.6% | 43.8% | 84.2% | 100% | 89.7% | 94.1% | 12.6% | 96.1% | 104% | 88.9% | 108% | 54.9% | 1.37 µM |
| Cc1cc2c(N3CCCC3)nc(N3CCCC3)nc2n1C | 0.7 | 0 | 0 | 0 | 1.5 | > 10 µM | > 10 µM | > 10 µM | – | 109% | 94.3% | 101% | 100% | 78.4% | 104% | 96% | 104% | 99.3% | 93.5% | 96.2% | 101% | 101% | 101% | 93.5% | 103% | 110% | 93.5% | 94.5% | 106% | 103% | 92.2% | 96.9% | 97.6% | 71.8% | > 10 µM |
| Cc1ccc(NC(=O)C(C)C)cc1C1CCN(Cc2ccc(Oc3ccc(F)c(F)c3)cc2)CC1 | 3.5 | 0.9 | 1.2 | – | 2 | > 10 µM | > 10 µM | – | – | 105% | 97.4% | 97.4% | 103% | 31.5% | 106% | 102% | 99.5% | 100% | 75.3% | 96.2% | 95.8% | 99.5% | 94.6% | 80.3% | – | – | – | – | – | 90.7% | 101% | 98.4% | 98.3% | 62.8% | 3.39 µM |
| O=C(NC[C@H](O)CN1CCc2ccccc2C1)c1cc(NC2COC2)ncn1 | 3.4 | 0 | 0 | 0 | 0 | > 10 µM | > 10 µM | > 10 µM | > 10 µM | 109% | 104% | 102% | 88.2% | 64.4% | 97.5% | 97.2% | 100% | 95.8% | 98.9% | 102% | 97% | 97.5% | 100% | 101% | 103% | 113% | 104% | 102% | 91% | 96.1% | 92% | 91% | 95.5% | 91.2% | – |
| O=C(O)CCc1c[nH]c2ccccc12 | 0 | 0 | 0 | 0 | – | > 10 µM | > 10 µM | > 10 µM | – | 116% | 96.7% | 110% | 105% | 108% | 97.3% | 99.5% | 104% | 102% | 102% | 98.5% | 108% | 106% | 107% | 106% | 98.7% | 95.5% | 95.2% | 90.4% | 107% | – | – | – | – | – | > 10 µM |
| O=C1NC(=O)/C(=C/c2ccc3c(c2)OC(F)(F)O3)S1 | 1.1 | 8.2 | 4 | 20.7 | 5.6 | 0.401 µM | – | 0.0473 µM | 1.62 µM | 95.8% | 95.6% | 101% | 98.9% | 75.2% | 103% | 94.6% | 87.8% | 63% | 45.1% | 94.3% | 96.2% | 89.6% | 91.2% | 51.3% | 97.4% | 89.3% | 46.8% | 30.5% | 24.7% | 94.5% | 97.9% | 84.6% | 81% | 35.1% | > 10 µM |
